Laboratory results as given in article PMC11279629, “Identification of Dihydropyrazolo[1,5-a]pyrazin-4(5H)-ones as Cyclic Products of β-Amidomethyl Vinyl Sulfone Alphavirus Cysteine Protease Inhibitors” (Pharmaceuticals, 2024).
Counter-ions that a name gives are not always drawn. Like-named read-outs stand apart in the source and are kept apart here.

Assays:
GSH capture assay = type: physicochemical; conditions: GSH (100×), phosphate buffer pH 7.4, 30 °C
VEEV = conditions: read-out: VEEV EC50 (alphavirus replication); cited from earlier work
VEEV nsP2 protease = conditions: cited from earlier work
[1] = Pharmacokinetics in mice, 10 mg/kg i.v.; type: in vivo, Male CD1 mice; conditions: for half-life: plasma, 10 mg/kg
Method: Although vinyl sulfones have been used as covalent warheads for inhibition of a wide range of cysteine proteases, there are relatively few reports of their use in vivo [14].
Blood samples were centrifuged at 4000× g for 5 min at 4 °C to obtain plasma. The plasma samples from each time point were pooled and then analyzed by LCMS/MS. The PK parameters were estimated by a non-compartmental model using WinNonlin 8.3.

[2] = Storage stability as solid or 10 mM DMSO stock solution

For `CS(=O)(=O)CC1CNC(=O)c2cc(NS(=O)(=O)c3ccccc3)nn21` (stereo not shown) (as salt: TFA) [Compound 8, N-(7-((methylsulfonyl)methyl)-4-oxo-4,5,6,7-tetrahydropyrazolo[1,5-a]pyrazin-2-yl)benzenesulfonamide], the melting point was 222 °C.
In the case of `CS(=O)(=O)CC1CNC(=O)c2cc(NS(=O)(=O)c3ccccc3)nn21` (stereo not shown) [Compound 8, N-(7-((methylsulfonyl)methyl)-4-oxo-4,5,6,7-tetrahydropyrazolo[1,5-a]pyrazin-2-yl)benzenesulfonamide], the “GSH-Adduct Formation (%)” value (GSH capture assay; 8 h) is reported as 3% and the “GSH-Adduct Formation (%)” value (GSH capture assay; 24 h) is reported as 6%.
For `C[C@@H]1CC(C)(C)Nc2c(C(=O)NC/C=C/S(C)(=O)=O)cccc21` [Compound #11], the EC50 (VEEV) is listed as 1400 nM and the “VEEV nsP2 protease activity inhibition” value (VEEV nsP2 protease) is listed as “micromolar inhibitor”.
With `CCOc1ccccc1-c1cc2n(n1)C(CS(C)(=O)=O)CNC2=O` (stereo not shown) [Compound 2, 2-(2-ethoxyphenyl)-7-((methylsulfonyl)methyl)-6,7-dihydropyrazolo[1,5-a]pyrazin-4(5H)-one] the “Plasma exposure relative to 1” value [1] was 4 fold, the AUC(0-t) ([1]; male, CD1, mouse, iv, pooled plasma) was 3800 ng·h/mL and the half-life ([1]; male, CD1, mouse, iv, pooled plasma, read-out: T1/2 (converted)) was 30.6 min. It also gave a half-life ([1]; male, CD1, mouse, iv, read-out: i.v. half-life) of ~30 min, a Clobs ([1]; pooled plasma) of 44 mL/min/kg and a Vssobs ([1]; pooled plasma) of 0.32 L/kg. The “GSH-Adduct Formation (%)” value (GSH capture assay; 8 h) was 0% and the Stability upon storage [2] was “stable”.
